Our source for the IC50 and Ki values is patent publication US12570648B2, “6,7-dihydro-5H-pyrido[2,3-c]pyridazine derivatives and related compounds as Bcl-xL protein inhibitors and pro-apoptotic agents for treating cancer” (LES LABORATOIRES SERVIER, priority 2019, dated 2026).

Structures are written as SMILES. pIC50, pKi: −log10 of the molar value.

One assay relates to H146 cells. Briefly: H146 cell viability using MTT assay. Format: cell-based. The settings on record: Homo sapiens, NCI-H146, 48 h exposure. The method, then: MTT colorimetric assay is based on the mitochondrial reduction of tetrazolium salt by living cells. The viable cell number is proportional to the production of formazan salts, which can be read spectrophotometrically at 540 nm.
MOLT-4 and H146 cells were purchased from ATCC and cultivated in RPMI 1640 supplemented with 10% heat inactivated fetal bovine serum, penicillin (100 IU/ml), streptomycin (100 μg/ml) and L-glutamine (2 mM). Cells were cultured at 37° C. in a humidified atmosphere containing 5% CO2. Cells were seeded in 96 microwell plates (150p per well) and exposed to the compounds for 48 h (3.16 fold serially diluted; 9 concentrations each, triplicates). At the end of incubation time, 15 μL of MTT solution (5 mg/ml) were added per well and the cells were incubated for another 4 h. Then, 100 μL of 10% Sodium Dodecyl Sulfate (SDS)/HCl 10 mM were added per well and the plate was incubated overnight, before measurement of optical density at 540 nm. IC50s were calculated using standard four-parametric curve fitting.

Assay [1] addresses His-His-(EK)-hsBCLXL(2-197)[N197C] (Homo sapiens (Human), UniProt Q07817, N197C). Briefly: Fluorescence quenching assay. Format: binding. The settings on record: 1 nM Cy5-labelled protein, 400 nM PUMA peptide, 2 hours at 23° C.; KI determined from IC50. In short, it runs like this:
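Cy5-labelled BCL-xL (1 nM) with TQ5WS quencher-labelled PUMA peptide (400 nM); displacement by compound (11-point dilution) raises fluorescence. Buffer 10 mM HEPES, 150 mM NaCl, 0.05% Tween 20, pH 7.4, 5% DMSO; 2 h at 23° C, Ex 620/Em 680 nm. Ki derived from IC50.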

The subject of another assay is MOLT-4 cells. As to the kind of experiment: MOLT-4 cell viability using MTT assay. Format: cell-based. The settings on record: Homo sapiens, MOLT-4, 48 h, 48 h exposure. The method, then:
MTT colorimetric assay is based on the mitochondrial reduction of tetrazolium salt by living cells.
Cells were cultured at 37° C. in a humidified atmosphere containing 5% CO2. […] At the end of incubation time, 15 μL of MTT solution (5 mg/ml) were added per well and the cells were incubated for another 4 h. […] IC50s were calculated using standard four-parametric curve fitting.

Sequence of His-His-(EK)-hsBCLXL(2-197)[N197C] (Q07817 2-197 N197C): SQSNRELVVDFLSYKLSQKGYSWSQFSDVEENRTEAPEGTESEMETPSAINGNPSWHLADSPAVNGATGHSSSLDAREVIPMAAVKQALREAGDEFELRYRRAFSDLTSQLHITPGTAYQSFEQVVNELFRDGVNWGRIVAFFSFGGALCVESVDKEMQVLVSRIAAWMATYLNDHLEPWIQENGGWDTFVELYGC

In the case of `Cc1c(Nc2nc3ccccc3s2)nnc2c1CCCN2c1nc(C(=O)O)c(CCCOc2cc3c(cc2F)c(CN(C)C)cn3C)s1` [Example 61, 2-{3-[(1,3-Benzothiazol-2-yl)amino]-4-methyl-5H,6H,7H,8H-pyrido[2,3-c]pyridazin-8-yl}-5-[3-({3-[(dimethylamino)methyl]-5-fluoro-1-methyl-1H-indol-6-yl}oxy)propyl]-1,3-thiazole-4-carboxylic acid], the pIC50 in the assay with H146 cells was 6.92; in the assay with MOLT-4 cells it was 6.91. In addition, the pKi in assay [1] was 10.48.
Take `Cc1c(Nc2nc3ccccc3s2)nnc2c1CCCN2c1nc(C(=O)O)c(CCCOc2ccc(N3CCN(C)CC3)cc2F)s1` [Example 60, 2-{3-[(1,3-Benzothiazol-2-yl)amino]-4-methyl-5H,6H,7H,8H-pyrido[2,3-c]pyridazin-8-yl}-5-{3-[2-fluoro-4-(4-methylpiperazin-1-yl)phenoxy]propyl}-1,3-thiazole-4-carboxylic acid]: the pIC50 was 8.05 with H146 cells and 8.56 with MOLT-4 cells. Further, the pKi in assay [1] was 11.05.
The like results for `Cc1c(Nc2nc3ccccc3s2)nnc2c1CCCN2c1nc(C(=O)O)c(CCCOc2ccc(C#CC(C)N3CCN(C)CC3)cc2F)s1` (stereo not drawn) [Example 41, 2-[3-(1,3-Benzothiazol-2-ylamino)-4-methyl-6,7-dihydro-5H-pyrido[2,3-c]pyridazin-8-yl]-5-[3-[2-fluoro-4-[3-(4-methylpiperazin-1-yl)but-1-ynyl]phenoxy]propyl]thiazole-4-carboxylic acid] were, in that order, 8.44, 9.44 and 11.60.
As for `Cc1c(Nc2nc3ccccc3s2)nnc2c1CCCN2c1nc(C(=O)O)c(CCCOc2ccc(C#CCN3C[C@H]4C[C@H]4C3)cc2F)s1` [Example 56, 5-[3-[4-[3-[(1S,5R)-3-Azabicyclo[3.1.0]hexan-3-yl]prop-1-ynyl]-2-fluoro-phenoxy]propyl]-2-[3-(1,3-benzothiazol-2-ylamino)-4-methyl-6,7-dihydro-5H-pyrido[2,3-c]pyridazin-8-yl]thiazole-4-carboxylic acid], the results for the pIC50 in the assay with H146 cells and in the assay with MOLT-4 cells were 7.89 and 8.84, respectively. In assay [1], the pKi is 10.31.
As to `Cc1c(Nc2nc3ccccc3s2)nnc2c1CCCN2c1nc(C(=O)O)c(CCCOc2ccc(OCCN3CCCC3)cc2)s1` [Example 52, 2-{3-[(1,3-Benzothiazol-2-yl)amino]-4-methyl-5H,6H,7H,8H-pyrido[2,3-c]pyridazin-8-yl}-5-(3-{4-[2-(pyrrolidin-1-yl)ethoxy]phenoxy}propyl)-1,3-thiazole-4-carboxylic acid], the pIC50 in the assay with H146 cells was 7.97; with MOLT-4 cells it was 8.62. For the same compound, in assay [1], the pKi is 11.89.
The like results for `Cc1c(Nc2nc3ccccc3s2)nnc2c1CCCN2c1nc(C(=O)O)c(CCCOc2ccc(C#CCN3CCCC(F)(F)C3)cc2F)s1` [Example 50, 2-{3-[(1,3-Benzothiazol-2-yl)amino]-4-methyl-5H,6H,7H,8H-pyrido[2,3-c]pyridazin-8-yl}-5-(3-{4-[3-(3,3-difluoropiperidin-1-yl)prop-1-yn-1-yl]-2-fluorophenoxy}propyl)-1,3-thiazole-4-carboxylic acid] were, in that order, 7.06, 8.43 and 10.15.
As to `Cc1c(Nc2nc3ccccc3s2)nnc2c1CCCN2c1nc(C(=O)O)c(CCCOc2ccc(C#CCN3CCCC(O)C3)cc2F)s1` (stereo not drawn) [Example 55, 2-[3-(1,3-Benzothiazol-2-ylamino)-4-methyl-6,7-dihydro-5H-pyrido[2,3-c]pyridazin-8-yl]-5-[3-[2-fluoro-4-[3-(3-hydroxy-1-piperidyl)prop-1-ynyl]phenoxy]propyl]thiazole-4-carboxylic acid], the values for the pIC50 in the assay on H146 cells and in the assay on MOLT-4 cells were 8.25 and 9.02, respectively. Besides, the negative-log Ki (pKi) in assay [1] is 11.04.
As for `CNCC#Cc1ccc(OCCCc2sc(N3CC(O)Cc4c3nnc(Nc3nc5ccccc5s3)c4C)nc2C(=O)O)c(F)c1` (stereo not drawn) [Example 38, 2-[3-(1,3-Benzothiazol-2-ylamino)-6-hydroxy-4-methyl-6,7-dihydro-5H-pyrido[2,3-c]pyridazin-8-yl]-5-[3-[2-fluoro-4-[3-(methylamino)prop-1-ynyl]phenoxy]propyl]thiazole-4-carboxylic acid], the values for the pIC50 with H146 cells and in the assay on MOLT-4 cells were 7.66 and 7.23, respectively. The negative logarithm of the Ki (pKi) in assay [1] is 11.54.
The like results for `Cc1c(Nc2nc3ccccc3s2)nnc2c1CCCN2c1nc(C(=O)O)c(CCCOc2ccc(C#CCN3CCC4(CC3)CNC(=O)C4)cc2F)s1` [Example 58, 2-[3-(1,3-Benzothiazol-2-ylamino)-4-methyl-6,7-dihydro-5H-pyrido[2,3-c]pyridazin-8-yl]-5-[3-[2-fluoro-4-[3-(3-oxo-2,8-diazaspiro[4.5]decan-8-yl)prop-1-ynyl]phenoxy]propyl]thiazole-4-carboxylic acid] were, in that order, 8.18, 9.09 and 11.32.
Regarding `CNCCN[C@@H]1Cc2c(nnc(Nc3nc4ccccc4s3)c2C)N(c2nc(C(=O)O)c(CCCOc3ccc(CCCN(C)C)cc3F)s2)C1` [Example 39, 2-[(6R)-3-[(1,3-Benzothiazol-2-yl)amino]-4-methyl-6-{[2-(methylamino)ethyl]amino}-5H,6H,7H,8H-pyrido[2,3-c]pyridazin-8-yl]-5-(3-{4-[3-(dimethylamino)propyl]-2-fluorophenoxy}propyl)-1,3-thiazole-4-carboxylic acid], the negative logarithm of the IC50 (pIC50) in the assay on H146 cells was 7.47; with MOLT-4 cells, 7.43. For the same compound, in assay [1], the pKi is 11.01.
The matching figures for `Cc1c(Nc2nc3ccccc3s2)nnc2c1CCCN2c1nc(C(=O)O)c(CCCOc2ccc(C#CCN3CCC3)cc2F)s1` [Example 45, 5-(3-{4-[3-(Azetidin-1-yl)prop-1-yn-1-yl]-2-fluorophenoxy}propyl)-2-{3-[(1,3-benzothiazol-2-yl)amino]-4-methyl-5H,6H,7H,8H-pyrido[2,3-c]pyridazin-8-yl}-1,3-thiazole-4-carboxylic acid]: 7.97, 9.26 and 11.31.
The matching figures for `Cc1c(Nc2nc3ccccc3s2)nnc2c1CCCN2c1nc(C(=O)O)c(CCCOc2ccc(C#CCN(C)C)cc2Cl)s1` [Example 51, 2-{3-[(1,3-Benzothiazol-2-yl)amino]-4-methyl-5H,6H,7H,8H-pyrido[2,3-c]pyridazin-8-yl}-5-(3-{2-chloro-4-[3-(dimethylamino)prop-1-yn-1-yl]phenoxy}propyl)-1,3-thiazole-4-carboxylic acid]: 8.02, 8.60 and 10.92.
As to `Cc1c(Nc2nc3ccccc3s2)nnc2c1CCCN2c1nc(C(=O)O)c(CCCOc2ccc(C#CCN3CCN(C)CC3)cc2F)s1` [Example 48, 2-[3-(1,3-Benzothiazol-2-ylamino)-4-methyl-6,7-dihydro-5H-pyrido[2,3-c]pyridazin-8-yl]-5-[3-[2-fluoro-4-[3-(4-methylpiperazin-1-yl)prop-1-ynyl]phenoxy]propyl]thiazole-4-carboxylic acid], the values for the negative logarithm of the IC50 (pIC50) with H146 cells and in the assay with MOLT-4 cells were 8.65 and 9.51, respectively. Besides, the pKi in assay [1] was 11.80.
For the compound `Cc1c(Nc2nc3ccccc3s2)nnc2c1CCCN2c1nc(C(=O)O)c(CCCOc2ccc(C#CCN(C)C)cc2Br)s1` [Example 59, 2-{3-[(1,3-Benzothiazol-2-yl)amino]-4-methyl-5H,6H,7H,8H-pyrido[2,3-c]pyridazin-8-yl}-5-(3-{2-bromo-4-[3-(dimethylamino)prop-1-yn-1-yl]phenoxy}propyl)-1,3-thiazole-4-carboxylic acid], the values for the pIC50 in the assay with H146 cells and with MOLT-4 cells were 7.76 and 8.47, respectively. In addition, in assay [1], the pKi was 10.64.
On to `Cc1c(Nc2nc3ccccc3s2)nnc2c1CCCN2c1nc(C(=O)O)c(CCCOc2ccc(C#CCNCC[N+](C)(C)CCCS(=O)(=O)[O-])cc2F)s1` [Example 54, 3-[2-[3-[4-[3-[2-[3-(1,3-Benzothiazol-2-ylamino)-4-methyl-6,7-dihydro-5H-pyrido[2,3-c]pyridazin-8-yl]-4-carboxy-thiazol-5-yl]propoxy]-3-fluoro-phenyl]prop-2-ynylamino]ethyl-dimethyl-ammonio]propane-1-sulfonate], for which the pIC50 with H146 cells is 6.23; in the assay on MOLT-4 cells, 7.33. For the same compound, in assay [1], the pKi is 11.92.
With `Cc1c(Nc2nc3ccccc3s2)nnc2c1CCCN2c1nc(C(=O)O)c(CCCOc2ccc(C#CCN3CCCC3)cc2F)s1` [Example 42, 2-[3-(1,3-Benzothiazol-2-ylamino)-4-methyl-6,7-dihydro-5H-pyrido[2,3-c]pyridazin-8-yl]-5-[3-[2-fluoro-4-(3-pyrrolidin-1-ylprop-1-ynyl)phenoxy]propyl]thiazole-4-carboxylic acid], the results for the pIC50 with H146 cells and with MOLT-4 cells were 8.52 and 9.49, respectively. Besides, the pKi in assay [1] was 11.55.
